Measurements reported in PubChem BioAssay AID192 (DTP/NCI, 2004).
Values joined by “and” are separate entries in the source; they are usually repeats but may differ in a detail not shown here. Equal values may be shown once. Inconclusive results and toxic doses are left out. Rule for the calls: active = survival T/C of 150% or more; inactive = T/C below 125% in these data. Square brackets hold non-standard residues; d marks the D form. Peptide text beside a SMILES is read from it. * marks the point of attachment. Nle = CCCC[CH](N)C(=O)O; Cbz = O=C(OCc1ccccc1)*

Test system: BDF1 mice, B16 melanoma ip, median survival T/C
Experiment: NCI In Vivo Anticancer Drug Screen. Data for tumor model B16 Melanoma (intraperitoneal) in B6D2F1 (BDF1) mice
Details: endpoint: median survival time, higher = longer survival
How it was run: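 In this screen, activity was judged from survival or tumor size in treated versus vehicle-treated tumor-bearing mice, reported as T/C.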

[1] = dose: 100.0 mg/kg/injection, schedule: Q04DX003 (ip), vehicle: saline with Tween-80
[2] = dose: 200.0 mg/kg/injection, schedule: Q04DX003 (ip), vehicle: saline with Tween-80
[3] = dose: 400.0 mg/kg/injection, schedule: Q04DX003 (ip), vehicle: saline with Tween-80
[4] = dose: 50.0 mg/kg/injection, schedule: Q01DX009 (ip), vehicle: saline with Tween-80
[5] = dose: 100.0 mg/kg/injection, schedule: Q01DX009 (ip), vehicle: saline with Tween-80
[6] = dose: 25.0 mg/kg/injection, schedule: Q01DX009 (ip), vehicle: saline with Tween-80
[7] = dose: 200.0 mg/kg/injection, schedule: Q01DX009 (ip), vehicle: saline with Tween-80
[8] = dose: 100.0 mg/kg/injection, schedule: Q01DX009 (ip), vehicle: saline
[9] = dose: 100.0 mg/kg/injection, schedule: Q04DX003 (ip), vehicle: Klucel (hydroxypropylcellulose) (HPC)
[10] = dose: 200.0 mg/kg/injection, schedule: Q04DX003 (ip), vehicle: Klucel (hydroxypropylcellulose) (HPC)

Measured: T/C

Cc1ccc(S(=O)(=O)Nc2ncc([N+](=O)[O-])s2)cc1
inactive: dose: 12.5 mg/kg/injection, schedule: Q04DX003 (ip), vehicle: saline with Tween-80 102 % of control | dose: 25.0 mg/kg/injection, schedule: Q04DX003 (ip), vehicle: saline with Tween-80 109 % of control | dose: 50.0 mg/kg/injection, schedule: Q04DX003 (ip), vehicle: saline with Tween-80 109 % of control

CS(=N)(=O)c1ccccc1 (stereo unspecified)
inactive: [1] 89 % of control | [2] 100 % of control | [3] 123 % of control

CCCCC(NC(=O)C(Cc1ccccc1)NC(=O)OCc1ccccc1)C(=O)O (stereo not drawn) (Cbz-Phe-[Nle]-OH; configuration not given here)
inactive: [4] 92 % of control | [5] 100 % of control

CC(=O)[O][Hg][c]1c(C)c(C)c(C)c(C)c1C
inactive: dose: 2.5 mg/kg/injection, schedule: Q01DX009 (ip), vehicle: Klucel (hydroxypropylcellulose) (HPC) 99 % of control | dose: 5.0 mg/kg/injection, schedule: Q01DX009 (ip), vehicle: Klucel (hydroxypropylcellulose) (HPC) 98 % of control | dose: 10.0 mg/kg/injection, schedule: Q01DX009 (ip), vehicle: Klucel (hydroxypropylcellulose) (HPC) 90 % of control | dose: 12.5 mg/kg/injection, schedule: Q01DX009 (ip), vehicle: Klucel (hydroxypropylcellulose) (HPC) 90 % of control

CC(=O)C1=CC(=O)NC(=O)C1C(=O)CC(C)C (stereo unspecified)
inactive: dose: 1.56 mg/kg/injection, schedule: Q01DX009 (ip), vehicle: Klucel (hydroxypropylcellulose) (HPC) 104 % of control | dose: 3.12 mg/kg/injection, schedule: Q01DX009 (ip), vehicle: Klucel (hydroxypropylcellulose) (HPC) 89 % of control and 95 % of control | dose: 6.25 mg/kg/injection, schedule: Q01DX009 (ip), vehicle: Klucel (hydroxypropylcellulose) (HPC) 92 % of control

COc1ccc(OC)c(C2N(Cc3ccc(N(C)C)cc3)CCCN2Cc2ccc(N(C)C)cc2)c1
inactive: [6] 104 % of control | [4] 97 % of control | [5] 100 % of control

COc1ccc(Cl)cc1NC(=O)c1ccc(Cl)cc1Cl
inactive: [1] 100 % of control | [2] 97 % of control | [3] 95 % of control

CC(C)(O)C(C)(O)c1ccc(Cl)cc1 (stereo unspecified)
inactive: dose: 12.5 mg/kg/injection, schedule: Q01DX009 (ip), vehicle: saline with Tween-80 88 % of control | [6] 91 % of control | [4] 103 % of control | [5] 104 % of control | [7] 92 % of control

CC1(c2ccccc2)CCc2ccccc21 (stereo unspecified)
inactive: [6] 103 % of control | [4] 89 % of control | [5] 90 % of control

NNC(=O)c1ccc(N)cc1
inactive: [4] 112 % of control | [5] 102 % of control | [7] 97 % of control

CC[C@H](C)[C@H](NC(=O)OC(C)(C)C)C(=O)ON1C(=O)CCC1=O
inactive: [4] 92 % of control | [5] 97 % of control | [7] 90 % of control

CC/C(CC(C)CC)=N\O (stereo unspecified)
inactive: [8] 100 % of control | dose: 200.0 mg/kg/injection, schedule: Q01DX009 (ip), vehicle: saline 94 % of control | dose: 400.0 mg/kg/injection, schedule: Q01DX009 (ip), vehicle: saline 94 % of control

NC(C/[N+]([O-])=N/O)C(=O)O (stereo unspecified)
inactive: dose: 15.6 mg/kg/injection, schedule: Q01DX009 (ip), vehicle: saline 97 % of control | dose: 15.6 mg/kg/injection, schedule: Q01DX009 (ip), vehicle: water 105 % of control | dose: 15.6 mg/kg/injection, schedule: Q04DX003 (ip), vehicle: saline 100 % of control | dose: 15.6 mg/kg/injection, schedule: Q04DX003 (ip), vehicle: water 102 % of control | dose: 16.0 mg/kg/injection, schedule: Q01DX009 (ip), vehicle: saline 117 % of control | dose: 31.3 mg/kg/injection, schedule: Q01DX009 (ip), vehicle: saline 102 % of control and 105 % of control | dose: 31.3 mg/kg/injection, schedule: Q01DX009 (ip), vehicle: water 108 % of control | dose: 31.3 mg/kg/injection, schedule: Q04DX003 (ip), vehicle: saline 97 % of control | dose: 31.3 mg/kg/injection, schedule: Q04DX003 (ip), vehicle: water 97 % of control | dose: 62.5 mg/kg/injection, schedule: Q01DX009 (ip), vehicle: saline 111 % of control | dose: 62.5 mg/kg/injection, schedule: Q01DX009 (ip), vehicle: water 111 % of control | dose: 62.5 mg/kg/injection, schedule: Q04DX003 (ip), vehicle: saline 100 % of control and 95 % of control | dose: 62.5 mg/kg/injection, schedule: Q04DX003 (ip), vehicle: water 108 % of control | [1] 100 % of control | dose: 125.0 mg/kg/injection, schedule: Q04DX003 (ip), vehicle: saline 97 % of control and 111 % of control | dose: 125.0 mg/kg/injection, schedule: Q04DX003 (ip), vehicle: water 111 % of control | [2] 100 % of control | dose: 250.0 mg/kg/injection, schedule: Q04DX003 (ip), vehicle: saline 100 % of control and 109 % of control | dose: 250.0 mg/kg/injection, schedule: Q04DX003 (ip), vehicle: water 111 % of control | [3] 106 % of control | dose: 500.0 mg/kg/injection, schedule: Q04DX003 (ip), vehicle: saline 107 % of control | dose: 500.0 mg/kg/injection, schedule: Q04DX003 (ip), vehicle: water 97 % of control

O=c1[nH]c2ccccc2nc1CBr
inactive: dose: 0.38 mg/kg/injection, schedule: Q01DX009 (ip), vehicle: saline with Tween-80 104 % of control | dose: 0.75 mg/kg/injection, schedule: Q01DX009 (ip), vehicle: saline with Tween-80 100 % of control | dose: 1.5 mg/kg/injection, schedule: Q01DX009 (ip), vehicle: saline with Tween-80 104 % of control | dose: 3.0 mg/kg/injection, schedule: Q01DX009 (ip), vehicle: saline with Tween-80 92 % of control

CCCCC(CCC)(CCN)CCCC
inactive: dose: 1.0 mg/kg/injection, schedule: Q01DX009 (ip), vehicle: saline sonified 102 % of control | dose: 2.0 mg/kg/injection, schedule: Q01DX009 (ip), vehicle: saline sonified 97 % of control | dose: 4.0 mg/kg/injection, schedule: Q01DX009 (ip), vehicle: saline sonified 100 % of control

COc1cc(C(C)c2cc3c(cc2OCCO)OCO3)cc(OC)c1OC (stereo unspecified)
inactive: [6] 107 % of control | [4] 104 % of control | [5] 110 % of control | [7] 112 % of control

CCCCCCCCCCCCSC(=O)CCC(=O)O
inactive: dose: 50.0 mg/kg/injection, schedule: Q04DX003 (ip), vehicle: Klucel (hydroxypropylcellulose) (HPC) 108 % of control | [9] 108 % of control | [10] 102 % of control

NC(=S)N/N=C/c1ccc(O)cn1
inactive: dose: 9.4 mg/kg/injection, schedule: Q01DX009 (ip), vehicle: saline with Tween-80 103 % of control | dose: 12.5 mg/kg/injection, schedule: Q01DX009 (ip), vehicle: saline 108 % of control | dose: 18.8 mg/kg/injection, schedule: Q01DX009 (ip), vehicle: saline with Tween-80 102 % of control and 119 % of control and 121 % of control | dose: 25.0 mg/kg/injection, schedule: Q01DX009 (ip), vehicle: saline 110 % of control | dose: 37.5 mg/kg/injection, schedule: Q01DX009 (ip), vehicle: saline with Tween-80 109 % of control and 111 % of control and 120 % of control | dose: 50.0 mg/kg/injection, schedule: Q01DX009 (ip), vehicle: saline 113 % of control and 122 % of control | dose: 75.0 mg/kg/injection, schedule: Q01DX009 (ip), vehicle: saline with Tween-80 114 % of control and 121 % of control and 124 % of control | [8] 115 % of control and 120 % of control | dose: 150.0 mg/kg/injection, schedule: Q01DX009 (ip), vehicle: saline with Tween-80 105 % of control and 115 % of control

CCNC(=O)Nc1ccc(C)cc1C
inactive: [9] 106 % of control | [10] 96 % of control | dose: 400.0 mg/kg/injection, schedule: Q04DX003 (ip), vehicle: Klucel (hydroxypropylcellulose) (HPC) 106 % of control
